Measured values as given in US20160318928A1, “TRICYCLIC COMPOUNDS AS ANTICANCER AGENTS” (BRISTOL-MYERS SQUIBB COMPANY, priority 2013, published 2016).

Columns and labels:
[1] = system: H187 Human Small Cell Carcinoma; assay: Human tumor xenograft model in mice, H187; type: in vivo
Description: (§1) Human Tumor Xenograft Models in Mice
(§2) All rodents were obtained from Jackson Laboratory. (Bar Harbor, Me.), and maintained in an ammonia-free environment in a defined and pathogen-free colony. All mice were quarantined approximately 1 week prior to their use for tumor propagation and drug efficacy testing. Mice were fed food and water ad libitum. The animal care program of Bristol-Myers Squibb Pharmaceutical Research Institute is fully accredited by the American Association for Accreditation of Laboratory Animal Care (AAALAC). All experiments were performed in accordance with Bristol-Myers Squibb (BMS) animal test methods and guidelines.
(§3) Tumor xenografts were grown and maintained subcutaneously (SC) in NSG (NOD scid IL2 receptor gamma chain knockout) mice (Jackson Lab). Tumors were propagated as subcutaneous transplants using tumor fragments obtained from donor mice.
(§4) Preclinical Chemotherapy Trials
(§5) The required numbers of animals needed to detect a meaningful response were pooled at the start of the experiment and each was given bilateral subcutaneous implants of two tumor fragments (˜20 mg) with a 13-gauge trocar. Tumors were allowed to grow to the pre-determined size window (tumors outside the range were excluded) and animals were evenly distributed to various treatment and control groups. There were typically 6-8 mice per treatment and control groups, consisting of 10-12 tumors. Treatment of each animal was based on individual body weight. Treated animals were checked daily for treatment related toxicity/mortality. Each group of animals was weighed before the initiation of treatment (WO and then again following the last treatment dose (Wt2). The difference in body weight (Wt2-Wt1) provides a measure of treatment-related toxicity.
(§6) Tumor response was determined by measurement of tumors with a caliper twice a week, until the tumors reached a predetermined “target” size of 0.5 gm or 1 gm depending on the tumor type. Tumor weights (mg) were estimated from the formula:
(§7) Tumor weight=(length×width^2)÷2
(§8) Tumor response criteria are expressed in terms of tumor growth inhibition (% TGI). Tumor growth delay is defined as the difference in time (days) required for the treated tumors (T) to reach a predetermined target size compared to those of the control group (C). For this purpose, the tumor weight of a group is expressed as medium tumor weight (MTW).
(§9) Tumor growth inhibition is calculated as follows:
(§10) where, Ct=Median control tumor size at end of treatment C0=Median control tumor size at treatment initiation Tt=Median tumor size of treated group at end of treatment T0=Median tumor size of treated group at treatment initiation
(§11) Tumor response was also expressed in terms of tumor growth delay and expressed as log cell kill (LCK value), defined as the difference in time (days) required for the treated tumors (T) to reach a predetermined target size compared to those of the control group (C).
(§12) Whenever possible, antitumor activity was determined at a range of dose levels up to the maximum tolerated dose (MTD) which is defined as the dose level immediately […] which excessive toxicity (i.e. more than one death) occurred. When death occurred, the day of death was recorded. Treated mice dying prior to having their tumors reach target size were considered to have died from drug toxicity. No control mice died bearing tumors less than target size. Treatment groups with more than one death caused by drug toxicity were considered to have had excessively toxic treatments and their data were not included in the evaluation of a compound's antitumor efficacy.
(§13) For administration of BET inhibitors to rodents, compounds were dissolved in […]/10% TPGS/10% Ethanol. BET inhibitors were typically administered orally on a schedule of QDx7 or QDx10 (5 day-on-2 day-off), although other schedules had also been evaluated and shown to be efficacious

[2] = system: JJN3R multiple myeloma cell line; assay: Human tumor xenograft model in mice, JJN3R; type: in vivo; settings: Mus musculus, JJN-3R, po, QDx7, read-out: % TGI
Description: as §1, §2, §3, §4, §5, §6, §7, §8, §9, §10, §11, §12, §13

BRD4 = BRD4 (Homo sapiens, UniProt O60885); assay: Time resolved fluorescence resonance energy transfer (TR-FRET) binding assay, BRD4 bromodomain; settings: one of the FRET assays described

Row | Structure (SMILES) | inhibition in vivo at 1 mg/kg [2] [%] | inhibition in vivo at 4 mg/kg [2] [%] | also measured
1 | Cc1noc(C)c1-c1cnc2c3ccc(C(C)(C)O)cc3n(C(c3ccccc3)C3CCOCC3)c2c1 (single isomer, unassigned) [Example 1, 2-[3-(Dimethyl-1,2-oxazol-4-yl)-5-[oxan-4-yl(phenyl)methyl]-5H-pyrido[3,2-b]indol-7-yl]propan-2-ol] |  |  | % TGI ([1]; 5 mg/kg, 2QDx7): 88.0%; LCK ([1]; 5 mg/kg, 2QDx7): 1.0; % TGI ([1]; 15 mg/kg, 2QDx7): 104.0%; LCK ([1]; 15 mg/kg, 2QDx7): 1.2
2 | Cc1nnn(C)c1-c1cnc2c3ccc(C(C)(C)O)cc3n([C@H](c3ccccc3)C3CCOCC3)c2c1 (single isomer, unassigned) [Example 54] |  |  | % TGI ([1]; 5 mg/kg, QDx7): 100.0%; LCK ([1]; 5 mg/kg, QDx7): 0.7; % TGI ([1]; 10 mg/kg, QDx7): 102.0%; LCK ([1]; 10 mg/kg, QDx7): 0.9
3 | Cc1nnn(C)c1-c1cnc2c3ccc([C@](C)(O)C4CC4)c(F)c3n([C@H](c3ccccc3)C3CCOCC3)c2c1 (single isomer, unassigned) [Example 432] | 51 | 102 | 
4 | Cc1nnn(C)c1-c1cnc2c3ccc(C(C)(O)C4CC4)c(F)c3n([C@H](c3ccccc3F)C3CCOCC3)c2c1 (single isomer, unassigned) [Example 436] | 71 | 116 | 
5 | [2H]C([2H])([2H])c1nnn(C)c1-c1cnc2c3ccc(S(C)(=O)=O)cc3n([C@H](c3ccccc3)C3CCOCC3)c2c1 [Example 263, 5-{7-Methanesulfonyl-5-[(S)-oxan-4-yl(phenyl)methyl]-5H-pyrido[3,2-b]indol-3-yl}-4-(^2H3)methyl-1-methyl-1H-1,2,3-triazole] | 6 | 52 | 
6 | [2H]C([2H])([2H])c1nnn(C)c1-c1cnc2c3ccc(C(C)(C)O)cc3n(C(c3ccc(F)cc3)C3CCOCC3)c2c1 (stereo not shown) [Example 267] | 10 | 67 | IC50 (BRD4): < 5 nM
7 | [2H]C([2H])([2H])c1nnn(C)c1-c1cnc2c3cc(F)c(C(C)(C)O)cc3n([C@H](c3ccccc3F)C3CCOCC3)c2c1 [Example 276, 2-{8-Fluoro-5-[(S)-(2-fluorophenyl)(oxan-4-yl)methyl]-3-[4-(^2H3)methyl-1-methyl-1H-1,2,3-triazol-5-yl]-5H-pyrido[3,2-b]indol-7-yl}propan-2-ol] | 56 | 95 | 
8 | [2H]C([2H])([2H])c1nnn(C)c1-c1cnc2c3ccc(C(C)(C)O)c(F)c3n([C@H](c3ccccc3)C3CCOCC3)c2c1 [Example 278, 2-{6-Fluoro-3-[4-(^2H3)methyl-1-methyl-1H-1,2,3-triazol-5-yl]-5-[(S)-oxan-4-yl(phenyl)methyl]-5H-pyrido[3,2-b]indol-7-yl}propan-2-ol] | 103 | 110 | 
9 | [2H]C([2H])([2H])c1nnn(C)c1-c1cnc2c3cc(F)c(C(C)(C)O)cc3n([C@H](c3ccccc3)C3CCOCC3)c2c1 [Example 279, 2-{8-Fluoro-3-[4-(^2H3)methyl-1-methyl-1H-1,2,3-triazol-5-yl]-5-[(S)-oxan-4-yl(phenyl)methyl]-5H-pyrido[3,2-b]indol-7-yl}propan-2-ol] | 88 | 110 | 
10 | [2H]C([2H])([2H])c1nnn(C)c1-c1cnc2c3ccc([C@@](C)(O)C4CC4)c(F)c3n([C@H](c3ccccc3)C3CCOCC3)c2c1 [Example 433, (1 S)-1-cyclopropyl-1-{6-fluoro-3-[4-(^2H3)methyl-1-methyl-1H-1,2,3-triazol-5-yl]-5-[(S)-oxan-4-yl(phenyl)methyl]-5H-pyrido[3,2-b]indol-7-yl}ethan-1-ol] | 54 |  | 
11 | [2H]C([2H])([2H])c1nnn(C)c1-c1cnc2c3ccc([C@](C)(O)C4CC4)c(F)c3n([C@H](c3ccccc3)C3CCOCC3)c2c1 [Example 434, (1R)-1-cyclopropyl-1-{6-fluoro-3-[4-(^2H3)methyl-1-methyl-1H-1,2,3-triazol-5-yl]-5-[(5)-oxan-4-yl(phenyl)methyl]-5H-pyrido[3,2-b]indol-7-yl}ethan-1-ol] | 82 |  | 
